These results are taken from PMC12202571, “Reversal of ABCG2-mediated drug resistance by tinodasertib (ETC-206)” (Frontiers in Pharmacology, 2025).

For data set [1], the target named is T1, ABCG2 (Homo sapiens, UniProt Q9UNQ0).
T1 sequence (Q9UNQ0 1-655): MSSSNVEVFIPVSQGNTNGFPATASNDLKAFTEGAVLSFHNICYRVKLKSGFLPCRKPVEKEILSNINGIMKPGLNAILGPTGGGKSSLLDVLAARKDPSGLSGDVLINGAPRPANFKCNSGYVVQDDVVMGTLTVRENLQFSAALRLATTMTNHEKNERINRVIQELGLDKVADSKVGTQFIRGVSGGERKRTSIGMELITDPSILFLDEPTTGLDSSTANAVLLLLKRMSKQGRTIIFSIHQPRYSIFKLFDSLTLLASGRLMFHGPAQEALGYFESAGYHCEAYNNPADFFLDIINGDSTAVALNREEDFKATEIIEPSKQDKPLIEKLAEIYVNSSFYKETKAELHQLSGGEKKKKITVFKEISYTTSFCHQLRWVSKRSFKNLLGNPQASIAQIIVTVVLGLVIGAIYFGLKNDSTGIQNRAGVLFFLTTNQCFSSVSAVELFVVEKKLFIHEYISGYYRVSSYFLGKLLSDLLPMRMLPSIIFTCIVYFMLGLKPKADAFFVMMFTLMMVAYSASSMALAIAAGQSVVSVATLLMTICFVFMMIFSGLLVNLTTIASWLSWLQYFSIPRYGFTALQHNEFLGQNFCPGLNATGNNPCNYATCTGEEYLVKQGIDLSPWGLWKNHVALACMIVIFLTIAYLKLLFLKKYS

The target of data set [2] is T2, ABCG2 (Homo sapiens, UniProt Q9UNQ0).
T2 construct: ABCG2-containing membrane vesicles
Briefly: vanadate-sensitive ATPase assay in ABCG2 membrane vesicles (colorimetric phosphate); supported by [3H]-mitoxantrone efflux inhibition in cells. Format: biochemical.

Turning to `O=C1c2c(O)ccc(O)c2C(=O)c2c(NCCNCCO)ccc(NCCNCCO)c21` [mitoxantrone], the “[3H]-mitoxantrone accumulation and efflux in ABCG2-overexpressing versus parenta” value at ABCG2 [1] was “Efflux assays demonstrated a substantial reduction in [^3H]-mitoxantrone efflux from ABCG2-overexpressing cells”. Regarding `N#Cc1ccc(-c2cnc3ccc(-c4ccc(C(=O)N5CCOCC5)cc4)cn23)cc1` [tinodasertib], on ABCG2 [2], the IC50 (usually the point on the concentration scale where inhibition reaches its midpoint) was about 2000 nM.
